Source: patent US20230287003A1, “BCL6 INHIBITORS” (Cancer Research Technology Limited, priority 2018, published 2023)

Experiments:
[1] = target: human BCL6 BTB domain (Trx-6×His-BCL6) / BCOR-AF633 peptide (Homo sapiens (Human), UniProt P41182); test: HTRF assay; type: binding; conditions: 1 nM Trx-6×His-BCL6, 300 nM BCOR-AF633 peptide, 2 hours incubation
[2] = target: BCL6-NCOR2(SMRT) corepressor protein-protein interaction (Homo sapiens (Human), UniProt P41182); test: NanoBRET cell assay; type: cell-based; conditions: for IC50: read-out: NanoBRET cell avg pIC50 (converted)
From the text: At 20 hr post-transfection, cells were collected, washed with PBS, and exchanged into media containing phenol red-free OptiMEM+4% FBS (Life Technology).

HTRF avg pIC50 (1 nM) [1] | IC50 [2] [µM] | IC50 ([1]; HTRF avg pIC50 (1 nM)) [µM] | NanoBRET cell avg pIC50 ([2]; HEK293T cells co-transfected with BCL6-nanoLuc and NCOR2-HaloTag, 6 hr incubation) | SMILES
8.35 | 0.0302 | – | – | Cn1c(=O)c2c(c3cc(Nc4ccnc(Cl)c4C#N)ccc31)NC(C1CC1)C(F)(F)CO2 (centres unmarked) [Example 1q, 2-chloro-4-((2-cyclopropyl-3,3-difluoro-7-methyl-6-oxo-1,2,3,4,6,7-hexahydro-[1,4]oxazepino[2,3-c]quinolin-10-yl)amino)nicotinonitrile]
6.88 | 4.79 | – | – | C[C@H]1CCOc2c(c3cc(Nc4cc(C(=O)N5CCC5)nc(Cl)c4C#N)ccc3n(C)c2=O)N1 [Example 3a, (S)-6-(azetidine-1-carbonyl)-2-chloro-4-((2,7-dimethyl-6-oxo-1,2,3,4,6,7-hexahydro-[1,4]oxazepino[2,3-c]quinolin-10-yl)amino)nicotinonitrile]
6.32 | 8.71 | – | – | CCC1CCOc2c(c3cc(Nc4ccnc(Cl)c4C#N)ccc3n(C)c2=O)N1 (centres unmarked) [Example 1c, 2-chloro-4-((2-ethyl-7-methyl-6-oxo-1,2,3,4,6,7-hexahydro-[1,4]oxazepino[2,3-c]quinolin-10-yl)amino)nicotinonitrile]
– | 25.7 | 0.275 | – | CC1Nc2c(c(=O)n(C)c3ccc(Nc4nc(N5C[C@H](C)C[C@H](C)C5)ncc4Cl)cc23)C(=O)OC1C (mixture of isomers) [Example 8p, rac-(2S,3R)-10-((5-chloro-2-((3S,5R)-3,5-dimethylpiperidin-1-yl)pyrimidin-4-yl)amino)-2,3,7-trimethyl-2,3-dihydro-[1,4]oxazepino[6,5-c]quinoline-5,6(1H,7H)-dione or rac-(2S,3S)-10-((5-chloro-2-((3S,5R)-3,5-dimethylpiperidin-1-yl)pyrimidin-4-yl)amino)-2,3,7-trimethyl-2,3-dihydro-[1,4]oxazepino[6,5-c]quinoline-5,6(1H,7H)-dione]
6.97 | 9.55 | – | – | C[C@@H]1CN(c2ncc(Cl)c(Nc3ccc4c(c3)c3c(c(=O)n4C)C(=O)OC[C@H](C)N3)n2)C[C@H](C)O1 [Example 8a, (S)-10-((5-chloro-2-((2S,6R)-2,6-dimethylmorpholino)pyrimidin-4-yl)amino)-2,7-dimethyl-2,3-dihydro-[1,4]oxazepino[6,5-c]quinoline-5,6(1H,7H)-dione]
7.83 | 0.0631 | – | – | Cn1c(=O)c2c(c3cc(Nc4ccnc(Cl)c4C#N)ccc31)N[C@@H](C1CC1)CCS2 [Example 1s, (R)-2-chloro-4-((2-cyclopropyl-7-methyl-6-oxo-1,2,3,4,6,7-hexahydro-[1,4]thiazepino[2,3-c]quinolin-10-yl)amino)nicotinonitrile]
8.20 | 0.145 | – | – | Cn1c(=O)c2c(c3cc(Nc4nc(N5CC(F)(F)C[C@@H]5CO)ncc4Cl)ccc31)N[C@@H](C1CC1)C(F)(F)CO2 [Example 12x, (S)-10-((5-chloro-2-((R)-4,4-difluoro-2-(hydroxymethyl)pyrrolidin-1-yl)pyrimidin-4-yl)amino)-2-cyclopropyl-3,3-difluoro-7-methyl-1,2,3,4-tetrahydro-[1,4]oxazepino[2,3-c]quinolin-6(7H)-one]
8.58 | – | – | 7.83 | Cn1c(=O)c2c(c3cc(Nc4ccnc(Cl)c4C#N)ccc31)N[C@@H](C1CC1)C(F)(F)CO2 [Example 1v, (S)-2-chloro-4-((2-cyclopropyl-3,3-difluoro-7-methyl-6-oxo-1,2,3,4,6,7-hexahydro-[1,4]oxazepino[2,3-c]quinolin-10-yl)amino)nicotinonitrile]
7.64 | 0.0891 | – | – | Cn1c(=O)c2c(c3cc(Nc4nc(N5C6CC7CC5CC(C6)O7)ncc4Cl)ccc31)N[C@@H](C1CC1)CCO2 [Example 5o, (R)-10-((2-(2-oxa-6-azaadamantan-6-yl)-5-chloropyrimidin-4-yl)amino)-2-cyclopropyl-7-methyl-1,2,3,4-tetrahydro-[1,4]oxazepino[2,3-c]quinolin-6(7H)-one]
7.32 | 0.646 | – | – | Cn1c(=O)c2c(c3cc(Nc4cc(C(=O)N5CC(C(F)(F)F)C5)nc(Cl)c4C#N)ccc31)N[C@@H](C1CC1)CCO2 [Example 3b, (R)-2-chloro-4-((2-cyclopropyl-7-methyl-6-oxo-1,2,3,4,6,7-hexahydro-[1,4]oxazepino[2,3-c]quinolin-10-yl)amino)-6-(3-(trifluoromethyl)azetidine-1-carbonyl)nicotinonitrile]
7.80 | 0.0603 | – | – | CN1CCN(c2ncc(Cl)c(Nc3ccc4c(c3)c3c(c(=O)n4C)OCC[C@H](C4CC4)N3)n2)CC1=O [Example 12b, (R)-10-((5-chloro-2-(4-methyl-3-oxopiperazin-1-yl)pyrimidin-4-yl)amino)-2-cyclopropyl-7-methyl-1,2,3,4-tetrahydro-[1,4]oxazepino[2,3-c]quinolin-6(7H)-one]
7.01 | 1.74 | – | – | C[C@H]1CCOc2c(c3cc(Nc4nc(N5CCOCC5)ncc4Cl)ccc3n(C)c2=O)N1 [Example 5h, (S)-10-((5-chloro-2-morpholinopyrimidin-4-yl)amino)-2,7-dimethyl-1,2,3,4-tetrahydro-[1,4]oxazepino[2,3-c]quinolin-6(7H)-one]
6.83 | 1.41 | – | – | C[C@H]1CCOc2c(c3cc(Nc4nc(N5CCC(C(=O)N(C)C)CC5)ncc4Cl)ccc3n(C)c2=O)N1 [Example 5d, (S)-1-(5-chloro-4-((2,7-dimethyl-6-oxo-1,2,3,4,6,7-hexahydro-[1,4]oxazepino[2,3-c]quinolin-10-yl)amino)pyrimidin-2-yl)-N,N-dimethylpiperidine-4-carboxamide]
7.13 | 0.234 | – | – | Cn1c(=O)c2c(c3cc(Nc4nc(N5CCC(F)(F)CC5)ncc4Cl)cnc31)N[C@@H](C1CC1)CCO2 [Example 5s, (R)-10-((5-chloro-2-(4,4-difluoropiperidin-1-yl)pyrimidin-4-yl)amino)-2-cyclopropyl-7-methyl-1,2,3,4-tetrahydro-[1,4]oxazepino[2,3-c][1,8]naphthyridin-6(7H)-one]
6.43 | 9.33 | – | – | Cn1c(=O)c2c(c3cc(Nc4nc(N5CCC(F)(F)CC5)ncc4Cl)ccc31)NC(C1CC1)COC2=O (centres unmarked) [Example 8o, 10-((5-chloro-2-(4,4-difluoropiperidin-1-yl)pyrimidin-4-yl)amino)-2-cyclopropyl-7-methyl-2,3-dihydro-[1,4]oxazepino[6,5-c]quinoline-5,6(1H,7H)-dione]
6.24 | 5.13 | – | – | Cn1c(=O)c2c(c3cc(Nc4ccnc(Cl)c4C#N)ccc31)NC(C)(C)CCO2 [Example 1f, 2-chloro-4-((2,2,7-trimethyl-6-oxo-1,2,3,4,6,7-hexahydro-[1,4]oxazepino[2,3-c]quinolin-10-yl)amino)nicotinonitrile]
7.54 | 0.776 | – | – | Cn1c(=O)c2c(c3cc(Nc4nc(N5CC6CCC(C5)O6)ncc4Cl)ccc31)N[C@@H](C1CC1)CCO2 [Example 12g, (R)-10-((2-(8-oxa-3-azabicyclo[3.2.1]octan-3-yl)-5-chloropyrimidin-4-yl)amino)-2-cyclopropyl-7-methyl-1,2,3,4-tetrahydro-[1,4]oxazepino[2,3-c]quinolin-6(7H)-one]

SMILES | HTRF avg pIC50 (1 nM) [1] | IC50 [2] [µM] | IC50 ([1]; HTRF avg pIC50 (1 nM)) [µM] | NanoBRET cell avg pIC50 ([2]; HEK293T cells co-transfected with BCL6-nanoLuc and NCOR2-HaloTag, 6 hr incubation)
O=c1c2c(c3cc(Nc4nc(N5C6CCC5COC6)ncc4Cl)ccc3n1CC1CC1)N[C@@H](C1CC1)CCO2 [Example 5r, (R)-10-((2-(3-oxa-8-azabicyclo[3.2.1]octan-8-yl)-5-chloropyrimidin-4-yl)amino)-2-cyclopropyl-7-(cyclopropylmethyl)-1,2,3,4-tetrahydro-[1,4]oxazepino[2,3-c]quinolin-6(7H)-one] | 7.41 | 0.0437 | – | –
Cn1c(=O)c2c(c3cc(Nc4nc(N5C6COCC5CC(O)C6)ncc4Cl)ccc31)N[C@@H](C1CC1)CCS2 (stereo partly drawn) [Example 15a, (R)-10-((5-chloro-2-((1R,5S,7S)-7-hydroxy-3-oxa-9-azabicyclo[3.3.1]-nonan-9-yl)pyrimidin-4-yl)amino)-2-cyclopropyl-7-methyl-1,2,3,4-tetrahydro-[1,4]thiazepino[2,3-c]quinolin-6(7H)-one] | 8.12 | 0.0288 | – | –
O=c1c2c(c3cc(Nc4nc(N5C6CCC5COC6)ncc4Cl)ccc3n1CC1CC(F)(F)C1)N[C@@H](C1CC1)CCO2 [Example 5q, (R)-10-((2-(3-oxa-8-azabicyclo[3.2.1]octan-8-yl)-5-chloropyrimidin-4-yl)amino)-2-cyclopropyl-7-((3,3-difluorocyclobutyl)methyl)-1,2,3,4-tetrahydro-[1,4]oxazepino[2,3-c]quinolin-6(7H)-one] | 7.63 | 0.0977 | – | –
Cn1c(=O)c2c(c3cc(Nc4nc(N5C6COCC5CC(O)C6)ncc4Cl)cnc31)N[C@@H](C1CC1)CCO2 (stereo partly drawn) [Example 11b, (R)-10-((5-chloro-2-((1R,5S,7S)-7-hydroxy-3-oxa-9-azabicyclo[3.3.1]nonan-9-yl)pyrimidin-4-yl)amino)-2-cyclopropyl-7-methyl-1,2,3,4-tetrahydro-[1,4]oxazepino[2,3-c][1,8]naphthyridin-6(7H)-one] | 8.16 | 0.0324 | – | –
Cn1c(=O)c2c(c3cc(Nc4nc(N5C6COCC5CC(O)C6)ncc4Cl)ccc31)N[C@@H](C1CC1)CCO2 (stereo partly drawn) [Example 5n, (R)-10-((5-chloro-2-((1R,5S,7S)-7-hydroxy-3-oxa-9-azabicyclo[3.3.1]nonan-9-yl)pyrimidin-4-yl)amino)-2-cyclopropyl-7-methyl-1,2,3,4-tetrahydro-[1,4]oxazepino[2,3-c]quinolin-6(7H)-one] | 7.97 | 0.0363 | – | –
